From patent publication US12145944B2, “Imidazopyrimidines as EED inhibitors and the use thereof” (THE REGENTS OF THE UNIVERSITY OF MICHIGAN, priority 2019, dated 2024)
Where two headings read alike, the source gives them in different places.

Experiments:
Pfeiffer cell line = test: Anti-proliferative activity, Pfeiffer cell line, 7 day treatment; type: cell-based; conditions: Homo sapiens, 168 h
Procedure: “N/A” stands for “not assessed”.
To assess the effect of PRC2 inhibition on cell growth, cells were seeded in 96-well cell culture plates at a density of 2 000-3 000 cells/well in 200 µL of culture medium, and treated with serially diluted compounds for 7 days at 37° C. in an atmosphere of 5% CO2. Cell growth was evaluated by a […] WST-8 assay (Dojindo Molecular Technologies) using a Tecan Infinite M1000 multimode microplate reader (Tecan, Morrisville, NC). The WST-8 reagent was added to the plate, incubated for 1-4 h, and read at 450 nm. The readings were normalized to the DMSO-treated cells, and the IC50 was calculated by nonlinear regression analysis using GraphPad Prism 6 software

[1] = system: KARPAS422 human B cell lymphoma cell; test: Cell proliferation, KARPAS422, 7 day treatment (WST-8); type: cell-based; conditions: Homo sapiens, KARPAS-422, 168 h
Summary of the method: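 Read-out was WST-8 absorbance at 450 nm after 1-4 h with reagent, taken after 7-day compound treatment (serial dilutions, 37 °C, 5% CO2) of 2 000-3 000 KARPAS422 cells per well. IC50 fitted by nonlinear regression on DMSO-normalized values.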

[2] = anti-proliferative IC50 class, Pfeiffer cell line, 7 day treatment, read-out: Pfeiffer Cell line
[3] = anti-proliferative IC50 class, Karpas 422 cell line, 7 day treatment, read-out: Karpas Cell line
[4] = anti-proliferative IC50, Pfeiffer cell line, 7 day treatment, read-out: Pfeiffer Cell line
[5] = anti-proliferative IC50, Karpas 422 cell line, 7 day treatment, read-out: Karpas Cell line

`[2H]C([2H])(Nc1ncc2c3c(ncn13)C(=O)N(CC(F)(F)F)Cc1cc(C(=O)N(C)C)ccc1-2)c1c(F)ccc2c1CCO2` [E 24, 12-(((5-fluoro-2,3-dihydrobenzofuran-4-yl)methyl-d2)amino)-N,N-dimethyl-3-oxo-4-(2,2,2-trifluoroethyl)-4,5-dihydro-3H-2,4,11,12a-tetraazabenzo[4,5]cycloocta[1,2,3-cd]indene-7-carboxamide] showed an IC50 (Pfeiffer cell line; [2]) of 10 to 100 nM and an IC50 [1, 3] of 10 to 100 nM.

`Cc1cnc2n1Cc1ncccc1-c1cnc(NCc3c(F)ccc4c3CCO4)n3cnc-2c13` [E 17, N-((5-fluoro-2,3-dihydrobenzofuran-4-yl)methyl)-5-methyl-6H-2,3,5a,7,12,13a-hexaazabenzo[4,5]cyclopenta[7,8]cycloocta[1,2,3-cd]inden-13-amine] was tested, and the IC50 (Pfeiffer cell line; [2]) was 10 to 100 nM and the IC50 [1, 3] was 10 to 100 nM.

With `O=C1c2ncn3c(NCc4c(F)ccc5c4CCO5)ncc(c23)-c2ccsc2CN1C1CC1` [compound 88, 4-cyclopropyl-11-(((5-fluoro-2,3-dihydrobenzofuran-4-yl)methyl)amino)-4,5-dihydro-3H-6-thia-2,4,10,11a-tetraazacyclopenta[4,5]cycloocta[1,2,3-cd]inden-3-one] the IC50 (Pfeiffer cell line; [4]) was 0.035 nM and the IC50 [1, 5] was 25.7 nM.

Work on `CS(=O)(=O)c1ncn2c(NCc3c(F)ccc4c3CCO4)ncc(-c3ccccc3)c12` [Cpd. No. 99, N-((5-fluoro-2,3-dihydrobenzofuran-4-yl)methyl)-1-(methylsulfonyl)-8-phenylimidazo[1,5-c]pyrimidin-5-amine] yielded an IC50 (Pfeiffer cell line; Pfeiffer, read-out: Pfeiffer Cell line (nM)) of 0.19 nM and an IC50 ([1]; read-out: Karpas Cell line (nM)) of 0.88 nM.

In the case of `Fc1ccc2c(c1CNc1ncc3c4c(ncn14)-c1nccn1Cc1nc(C(F)(F)F)ccc1-3)CCO2` [E 32, N-((5-fluoro-2,3-dihydrobenzofuran-4-yl)methyl)-8-(trifluoromethyl)-6H-2,3,5a,7,12,13a-hexaazabenzo[4,5]cyclopenta[7,8]cycloocta[1,2,3-cd]inden-13-amine], the IC50 (Pfeiffer cell line; [2]) is reported as under 10 nM and the IC50 [1, 3] is reported as 10 to 100 nM.

For `Cc1ccc2c(n1)CNC(=O)c1ncn3c(NCc4c(F)ccc5c4CCO5)ncc-2c13` [compound 21, 12-(((5-fluoro-2,3-dihydrobenzofuran-4-yl)methyl)amino)-7-methyl-4,5-dihydro-3H-2,4,6,11,12a-pentaazabenzo[4,5]cycloocta[1,2,3-cd]inden-3-one], the IC50 (Pfeiffer cell line; [4]) was 0.61 nM and the IC50 [1, 5] was 14.9 nM.

With `Cc1ccc2c(n1)Cn1ccnc1-c1ncn3c(NCc4c(F)ccc5c4CCO5)ncc-2c13` [E 34, N-((5-fluoro-2,3-dihydrobenzofuran-4-yl)methyl)-8-methyl-6H-2,3,5a,7,12,13a-hexaazabenzo[4,5]cyclopenta[7,8]cycloocta[1,2,3-cd]inden-13-amine] the IC50 (Pfeiffer cell line; [2]) was under 10 nM and the IC50 [1, 3] was 10 to 100 nM.

In the case of `O=C1OCc2ccccc2-c2cnc(NCc3c(F)ccc4c3CCO4)n3cnc1c23` [compound 6, 12-(((5-fluoro-2,3-dihydrobenzofuran-4-yl)methyl)amino)-3H,5H-4-oxa-2,11,12a-triazabenzo[4,5]cycloocta[1,2,3-cd]inden-3-one], the IC50 (Pfeiffer cell line; [4]) is reported as 0.22 nM and the IC50 [1, 5] is reported as 1.98 nM.

`O=C1c2ncn3c(NCc4c(F)ccc5c4CCO5)ncc(c23)-c2ccc(C(F)(F)F)nc2CN1CC1(O)CC1` [compound 44, 12-(((5-fluoro-2,3-dihydrobenzofuran-4-yl)methyl)amino)-4-((1-hydroxycyclopropyl)methyl)-7-(trifluoromethyl)-4,5-dihydro-3H-2,4,6,11,12a-pentaazabenzo[4,5]cycloocta[1,2,3-cd]inden-3-one] gave an IC50 (Pfeiffer cell line; [4]) of 1.03 nM and an IC50 [1, 5] of 2.44 nM.

Work on `O=C1c2ncn3c(NCc4c(F)ccc5c4CCO5)ncc(c23)-c2cnc(C(F)(F)F)cc2CN1CC1COCCO1` (centres unmarked) [compound 37, 4-((1,4-dioxan-2-yl)methyl)-12-(((5-fluoro-2,3-dihydrobenzofuran-4-yl)methyl)amino)-7-(trifluoromethyl)-4,5-dihydro-3H-2,4,8,11,12a-pentaazabenzo[4,5]cycloocta[1,2,3-cd]inden-3-one] yielded an IC50 (Pfeiffer cell line; [4]) of 0.25 nM and an IC50 [1, 5] of 1.79 nM.
